Experimental data reported in patent US8258158B2 (Hoffmann-La Roche Inc., priority 2009, dated 2012).

The compounds below were run against T1, human HSL (Homo sapiens, UniProt Q05469) (assay: Human hormone-sensitive lipase (HSL) enzyme inhibition assay (colorimetric, DMPT substrate)). Settings: human full length HSL-His6; 2,3-dimercapto-1-propanol tributyrate substrate; 37° C., 20 minutes; read-out: HSL hum IC50.
T1 construct: overlapping PCR to generate a full length human HSL ORF with a 3′-His6 tag; His6 (C); made in house; host or cells: High 5 insect cells (baculovirus, pFast-BAC)
T1 sequence (Q05469 1-1076): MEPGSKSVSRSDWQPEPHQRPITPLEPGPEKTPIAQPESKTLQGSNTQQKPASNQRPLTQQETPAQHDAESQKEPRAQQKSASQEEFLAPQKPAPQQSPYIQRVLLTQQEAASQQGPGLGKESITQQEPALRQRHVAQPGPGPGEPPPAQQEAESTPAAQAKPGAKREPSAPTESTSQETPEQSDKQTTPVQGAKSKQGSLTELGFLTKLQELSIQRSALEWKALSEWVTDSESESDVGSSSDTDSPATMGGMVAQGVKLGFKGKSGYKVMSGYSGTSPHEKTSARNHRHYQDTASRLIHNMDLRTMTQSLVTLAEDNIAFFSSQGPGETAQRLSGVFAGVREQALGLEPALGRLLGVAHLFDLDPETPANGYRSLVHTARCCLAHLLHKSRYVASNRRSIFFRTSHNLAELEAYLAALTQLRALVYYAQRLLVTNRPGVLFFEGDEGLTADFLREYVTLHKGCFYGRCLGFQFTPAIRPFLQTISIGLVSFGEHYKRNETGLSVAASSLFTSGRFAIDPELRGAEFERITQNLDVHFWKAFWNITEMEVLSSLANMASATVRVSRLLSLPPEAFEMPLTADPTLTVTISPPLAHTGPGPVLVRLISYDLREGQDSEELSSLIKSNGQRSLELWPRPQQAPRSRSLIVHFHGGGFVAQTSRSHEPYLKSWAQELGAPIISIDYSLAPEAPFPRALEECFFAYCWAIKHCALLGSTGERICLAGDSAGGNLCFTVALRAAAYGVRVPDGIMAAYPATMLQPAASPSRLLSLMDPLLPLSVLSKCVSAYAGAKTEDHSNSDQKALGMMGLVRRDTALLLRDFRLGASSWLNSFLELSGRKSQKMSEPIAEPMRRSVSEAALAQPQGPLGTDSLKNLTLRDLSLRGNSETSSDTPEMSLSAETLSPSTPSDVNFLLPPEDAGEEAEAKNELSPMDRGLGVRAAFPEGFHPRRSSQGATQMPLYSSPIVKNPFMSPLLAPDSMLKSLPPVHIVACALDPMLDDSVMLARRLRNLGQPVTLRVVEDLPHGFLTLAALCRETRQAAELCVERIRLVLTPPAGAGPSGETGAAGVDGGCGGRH
Type: biochemical
Method in brief: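 Full-length human HSL with C-terminal His6, expressed in baculovirus/High 5 cells and Ni-NTA purified, was added from a 15 µg/ml solution to 1.5 mM DMPT in 100 mM MOPS pH 7.2, 0.2 mg/ml fatty acid-free BSA. After 20 min at 37 °C, DTNB with SDS/Triton X-100 was added, 15 min RT, and A405 read.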

IC50	SMILES
260 nM	CC(C)(C)CCC(=O)N1CCC(C(=O)Nc2ccc(OC(F)(F)F)cc2)CC1 [Example 56, 1-(4,4-Dimethyl-pentanoyl)-piperidine-4-carboxylic acid (4-trifluoromethoxy-phenyl)-amide]
250 nM	CC1(C(=O)Nc2ccc(OC(F)(F)F)cc2)CCN(S(=O)(=O)c2ccccc2)CC1 [Example 57, 1-Benzenesulfonyl-4-methyl-piperidine-4-carboxylic acid (4-trifluoromethoxy-phenyl)-amide]
540 nM	CC1(C(=O)Nc2ccc(OC(F)(F)F)cc2)CCN(S(=O)(=O)c2ccccc2Cl)CC1 [Example 58, 1-(2-Chloro-benzenesulfonyl)-4-methyl-piperidine-4-carboxylic acid (4-trifluoromethoxy-phenyl)-amide]
290 nM	COCC[C@@H](Oc1ccc(NC(=O)C2CCN(S(=O)(=O)c3ccc(C)cc3)CC2)cc1)C(F)(F)F [Example 59, 1-(Toluene-4-sulfonyl)-piperidine-4-carboxylic acid [4-((R)-3-methoxy-1-trifluoromethyl-propoxy)-phenyl]-amide]
70 nM	Cc1ccc(S(=O)(=O)N2CCC(C(=O)Nc3ccc(O[C@H](CCO)C(F)(F)F)cc3)CC2)cc1 [Example 60, 1-(Toluene-4-sulfonyl)-piperidine-4-carboxylic acid [4-((R)-3-hydroxy-1-trifluoromethyl-propoxy)-phenyl]-amide]
640 nM	O=C(NCC1(c2ccc(Cl)cc2)CC1)C1CCN(S(=O)(=O)c2ccccc2Cl)CC1 [Example 61, 1-(2-Chloro-benzenesulfonyl)-piperidine-4-carboxylic acid [1-(4-chloro-phenyl)-cyclopropylmethyl]-amide]
530 nM	O=C(NCC1(c2ccc(Cl)cc2)CC1)C1CCN(S(=O)(=O)c2ccccc2)CC1 [Example 62, 1-Benzenesulfonyl-piperidine-4-carboxylic acid [1-(4-chloro-phenyl)-cyclopropylmethyl]-amide]
1090 nM	Cn1cc(S(=O)(=O)N2CCC(F)(C(=O)Nc3ccc(OC(F)(F)F)cc3)CC2)c(C(F)(F)F)n1 [Example 63, 4-Fluoro-1-(1-methyl-3-trifluoromethyl-1H-pyrazole-4-sulfonyl)-piperidine-4-carboxylic acid (4-trifluoromethoxy-phenyl)-amide]
1490 nM	Cc1ccc(S(=O)(=O)N2CCC(C(=O)NCC3(c4ccc(Cl)cc4)CC3)CC2)cc1 [Example 64, 1-(Toluene-4-sulfonyl)-piperidine-4-carboxylic acid [1-(4-chloro-phenyl)-cyclopropylmethyl]-amide]
